We go through 4 compounds from US9416115B2, “Fused heterocyclic compounds as ion channel modulators” (Gilead Sciences, Inc., priority 2013, dated 2016).

SMILES strings stand for the structures.

This assay deals with hNav1.7 (Homo sapiens, UniProt Q15858). Kind of assay: Voltage-dependent inhibition of the Nav1.7 sodium channel. It counts as cell-based. As to conditions: voltage-dependent block of peak current. The method, then:
HEK-293 cells stably expressing wild-type (WT) hNav1.7 were obtained from Scottish Biomedical (Glasgow, Scotland, United Kingdom). Cells are maintained with standard tissue culture procedures and stable channel expression is maintained with 500 ug/mL G418 in the culture medium. Unless otherwise noted, all reagents are purchased from Sigma-Aldrich (St Louis, Mo., U.S.A.).
Assays measuring Voltage-Dependent Block (VDB) of Nav1.7 are performed on an automated electrophysiology platform, QPatch 16X or QPatch HT (Sophion Bioscience, Copenhagen, Denmark), using the whole cell patch clamp technique to measure currents through the cell membrane. Series resistance compensation is set to 100% and series resistance and whole-cell compensation are performed automatically. Currents stored in the Sophion Bioscience Oracle database (Sophion Bioscience, Copenhagen, Denmark). Analysis is performed using QPatch Assay software and data are compiled in Excel 2010 (Microsoft, Seattle, Wash., U.S.A.).
The internal (pipette) solution consists of (in mM) 105 CsF, 10 NaF, 20 CsCl, 2 EGTA, 10 HEPES, 10 Dextrose with a pH of 7.35 and osmolarity of 300 mOsmol/kg. The external (bath) solution contains in (mM): 140 NaCl, 4 KCl, 1.8 CaCl2, 1 MgCl2, 10 dextrose, 10 HEPES, with a pH of 7.35 and osmolarity of 310 mOsmol/kg. Experiments are carried out at 23-25° C.
Compound stocks are routinely made by the Gilead Sample Bank in vials to 10 mM in dimethyl sulfoxide (DMSO). In some cases, when compounds are not soluble in DMSO, they are made in 100% ethanol. Stocks are sonicated as necessary. Compounds are diluted in extracellular solution using a MicroLab Nimbus (Hamilton Robotics, Reno, Nev.) to 1 μM in glass vials and transferred to glass well plates before robotic addition to the cells.
Cells are allowed to stabilize for 10 min after establishment of the whole-cell configuration before current is measured. The test compound is applied 3 times at 120 second intervals to allow for equilibration. Currents were leak subtracted using a P/4 procedure, low-pass Bessel filtered at 5 kHz and digitized at 25 kHz. Results are presented as mean percentage inhibition.
Voltage-dependent block of Nav1.7 peak current was measured during a voltage step to 0 mV (20 ms) following a voltage step pre-conditioning steps (−60 mV for 10 sec followed by −120 mV for 10 ms). The holding potential was −120 mV and this voltage protocol induces half maximal inactivation of Nav1.7. The voltage protocol for VDB was performed every 45 seconds in the absence and presence of compound and percentage inhibition was calculated with respect to the compound free condition.

hNav1.7, sequence (Q15858 whole entry): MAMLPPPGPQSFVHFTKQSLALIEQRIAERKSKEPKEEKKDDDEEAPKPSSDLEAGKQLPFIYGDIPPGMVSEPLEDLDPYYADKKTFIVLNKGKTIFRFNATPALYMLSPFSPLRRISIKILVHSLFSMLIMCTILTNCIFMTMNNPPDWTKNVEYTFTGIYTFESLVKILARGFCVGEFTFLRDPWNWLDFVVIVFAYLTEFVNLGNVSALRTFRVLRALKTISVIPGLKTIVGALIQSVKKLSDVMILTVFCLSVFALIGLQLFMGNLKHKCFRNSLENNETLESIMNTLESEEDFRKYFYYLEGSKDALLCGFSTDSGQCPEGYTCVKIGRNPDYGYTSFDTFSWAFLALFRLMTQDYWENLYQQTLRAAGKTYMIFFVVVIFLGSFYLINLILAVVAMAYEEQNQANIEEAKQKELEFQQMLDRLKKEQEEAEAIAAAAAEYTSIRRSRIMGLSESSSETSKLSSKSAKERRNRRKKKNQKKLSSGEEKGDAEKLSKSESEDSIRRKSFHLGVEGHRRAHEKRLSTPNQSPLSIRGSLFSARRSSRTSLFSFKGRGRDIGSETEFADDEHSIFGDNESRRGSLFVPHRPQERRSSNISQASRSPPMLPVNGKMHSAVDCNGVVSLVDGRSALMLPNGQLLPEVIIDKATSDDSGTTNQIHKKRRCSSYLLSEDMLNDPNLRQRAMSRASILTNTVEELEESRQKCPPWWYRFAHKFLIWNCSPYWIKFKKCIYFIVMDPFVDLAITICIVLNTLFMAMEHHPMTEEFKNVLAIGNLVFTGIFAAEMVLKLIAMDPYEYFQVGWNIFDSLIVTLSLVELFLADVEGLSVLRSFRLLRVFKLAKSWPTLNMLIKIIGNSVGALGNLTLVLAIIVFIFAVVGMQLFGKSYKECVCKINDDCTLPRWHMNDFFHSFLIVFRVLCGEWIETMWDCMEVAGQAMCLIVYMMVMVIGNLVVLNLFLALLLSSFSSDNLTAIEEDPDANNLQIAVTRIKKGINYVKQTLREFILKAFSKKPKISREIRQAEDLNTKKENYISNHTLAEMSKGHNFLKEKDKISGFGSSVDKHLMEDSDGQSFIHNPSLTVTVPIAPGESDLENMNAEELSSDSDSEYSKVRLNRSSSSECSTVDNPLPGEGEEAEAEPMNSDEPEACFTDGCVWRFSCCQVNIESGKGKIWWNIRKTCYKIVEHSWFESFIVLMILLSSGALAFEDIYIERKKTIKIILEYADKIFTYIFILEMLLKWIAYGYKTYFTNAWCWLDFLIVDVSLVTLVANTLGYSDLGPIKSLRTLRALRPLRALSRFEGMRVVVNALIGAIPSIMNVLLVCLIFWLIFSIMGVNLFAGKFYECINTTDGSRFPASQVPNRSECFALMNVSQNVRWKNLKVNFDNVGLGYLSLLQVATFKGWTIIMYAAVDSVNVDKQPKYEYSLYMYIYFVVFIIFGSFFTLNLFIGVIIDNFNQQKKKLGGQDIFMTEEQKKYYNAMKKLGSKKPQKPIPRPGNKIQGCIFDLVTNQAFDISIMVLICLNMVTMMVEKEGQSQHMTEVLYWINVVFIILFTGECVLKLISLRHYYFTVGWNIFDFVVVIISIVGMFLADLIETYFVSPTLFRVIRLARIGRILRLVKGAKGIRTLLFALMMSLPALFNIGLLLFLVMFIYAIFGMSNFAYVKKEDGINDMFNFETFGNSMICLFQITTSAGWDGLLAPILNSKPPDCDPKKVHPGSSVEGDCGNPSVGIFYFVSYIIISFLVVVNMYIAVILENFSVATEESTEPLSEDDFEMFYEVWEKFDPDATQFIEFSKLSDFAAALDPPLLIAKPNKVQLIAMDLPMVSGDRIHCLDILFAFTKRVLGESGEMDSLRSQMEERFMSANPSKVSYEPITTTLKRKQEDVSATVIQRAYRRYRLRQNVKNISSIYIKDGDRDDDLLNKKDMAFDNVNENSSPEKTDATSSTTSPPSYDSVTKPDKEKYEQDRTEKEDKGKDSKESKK

Turning to `FC(F)(F)Oc1cccc(-c2ccc3onc(OCc4ncccn4)c3c2)c1` [Example 10, 3-(pyrimidin-2-ylmethoxy)-5-(3-(trifluoromethoxy)phenyl)benzo[d]isoxazole], the “Nav 1.7-VDB 1 uM” value came to 10.0 percentage inhibition.
As for `COc1cc(OC(F)(F)F)ccc1-c1ccc2onc(OCc3ncccn3)c2c1` [Example 4, 5-(2-methoxy-4-(trifluoromethoxy)phenyl)-3-(pyrimidin-2-ylmethoxy)benzo[d]isoxazole], the “Nav 1.7-VDB 1 uM” value is 28.6 percentage inhibition.
Consider `Cc1nnc(COc2noc3ccc(-c4ccc(OC(F)(F)F)cc4)cc23)o1` [Example 99, 3-((5-methyl-1,3,4-oxadiazol-2-yl)methoxy)-5-(4-(trifluoromethoxy)phenyl)benzo[d]isoxazole], for which the “Nav 1.7-VDB 1 uM” value is reported as 59.3 percentage inhibition.
In the case of `Fc1cc(C(F)(F)F)ccc1-c1ccc2onc(OCc3ncccn3)c2c1` [Example 6, 5-(2-fluoro-4-(trifluoromethyl)phenyl)-3-(pyrimidin-2-ylmethoxy)benzo[d]isoxazole] it was 15.6 percentage inhibition.
